Laboratory results as given in the supplement of paper PMC10307832.

Experiments:
Assay in all cases: relative viability (nuclei count vs DMSO), 5 days (fraction); higher = more cells survive
Everolimus + Phenformin = compound: CO[C@H]1C[C@@H]2CC[C@@H](C)[C@@](O)(O2)C(=O)C(=O)N2CCCC[C@H]2C(=O)O[C@H]([C@H](C)C[C@@H]2CC[C@@H](OCCO)[C@H](OC)C2)CC(=O)[C@H](C)/C=C(\C)[C@@H](O)[C@@H](OC)C(=O)[C@H](C)C[C@H](C)/C=C/C=C/C=C/1C [Everolimus] + N=C(N)NC(=N)NCCc1ccccc1 [Phenformin] (partner 250 µM)
Method in brief: (§1)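 Relative viability divides the nuclei count in treated wells by that in vehicle wells. Lung cancer cell lines were seeded in 1536-well plates, dosed by pin tool the next day, and fixed and stained after 5 days in one step with final 0.05% Triton X-100, 1% formaldehyde and 1 ug/ml Hoechst. Dosing was a single drug or a fixed anchor-drug dose plus five library-drug doses (not always all listed) in √10 steps, and values are medians of duplicate plates imaged at 4×.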

Everolimus + Pictilisib = compound: CO[C@H]1C[C@@H]2CC[C@@H](C)[C@@](O)(O2)C(=O)C(=O)N2CCCC[C@H]2C(=O)O[C@H]([C@H](C)C[C@@H]2CC[C@@H](OCCO)[C@H](OC)C2)CC(=O)[C@H](C)/C=C(\C)[C@@H](O)[C@@H](OC)C(=O)[C@H](C)C[C@H](C)/C=C/C=C/C=C/1C [Everolimus] + CS(=O)(=O)N1CCN(Cc2cc3nc(-c4cccc5[nH]ncc45)nc(N4CCOCC4)c3s2)CC1 [Pictilisib] (partner 1 µM)
Method in brief: as §1

Everolimus + Alpelisib = compound: CO[C@H]1C[C@@H]2CC[C@@H](C)[C@@](O)(O2)C(=O)C(=O)N2CCCC[C@H]2C(=O)O[C@H]([C@H](C)C[C@@H]2CC[C@@H](OCCO)[C@H](OC)C2)CC(=O)[C@H](C)/C=C(\C)[C@@H](O)[C@@H](OC)C(=O)[C@H](C)C[C@H](C)/C=C/C=C/C=C/1C [Everolimus] + Cc1nc(NC(=O)N2CCC[C@H]2C(N)=O)sc1-c1ccnc(C(C)(C)C(F)(F)F)c1 [Alpelisib] (partner 2 µM)
Method in brief: as §1

Everolimus + AZD7762 = compound: CO[C@H]1C[C@@H]2CC[C@@H](C)[C@@](O)(O2)C(=O)C(=O)N2CCCC[C@H]2C(=O)O[C@H]([C@H](C)C[C@@H]2CC[C@@H](OCCO)[C@H](OC)C2)CC(=O)[C@H](C)/C=C(\C)[C@@H](O)[C@@H](OC)C(=O)[C@H](C)C[C@H](C)/C=C/C=C/C=C/1C [Everolimus] + NC(=O)Nc1cc(-c2cccc(F)c2)sc1C(=O)N[C@H]1CCCNC1 [AZD7762] (partner 0.2 µM)
Method in brief: as §1

Cell Line	relative viability (Everolimus + Phenformin; first compound 0.01 µM)	relative viability (Everolimus + Phenformin; first compound 0.03162 µM)	relative viability (Everolimus + Phenformin; first compound 0.1 µM)	relative viability (Everolimus + Phenformin; first compound 0.3162 µM)	relative viability (Everolimus + Phenformin; first compound 1 µM)	relative viability (Everolimus + Pictilisib; first compound 0.01 µM)	relative viability (Everolimus + Pictilisib; first compound 0.03162 µM)	relative viability (Everolimus + Pictilisib; first compound 0.1 µM)	relative viability (Everolimus + Pictilisib; first compound 0.3162 µM)	relative viability (Everolimus + Pictilisib; first compound 1 µM)	relative viability (Everolimus + Alpelisib; first compound 0.01 µM)	relative viability (Everolimus + Alpelisib; first compound 0.03162 µM)	relative viability (Everolimus + Alpelisib; first compound 0.1 µM)	relative viability (Everolimus + Alpelisib; first compound 0.3162 µM)	relative viability (Everolimus + Alpelisib; first compound 1 µM)	relative viability (Everolimus + AZD7762; first compound 0.01 µM)	relative viability (Everolimus + AZD7762; first compound 0.03162 µM)	relative viability (Everolimus + AZD7762; first compound 0.1 µM)	relative viability (Everolimus + AZD7762; first compound 0.3162 µM)	relative viability (Everolimus + AZD7762; first compound 1 µM)
COR-L 105	0.356	0.387	0.388	0.435	0.361	0.331	0.376	0.295	0.368	0.313	0.585	0.526	0.489	0.567	0.518					
Calu-6						0.573	0.566	0.559	0.527	0.592	0.65	0.604	0.593	0.608	0.614					
ChaGo-K-1	0.532	0.467	0.394	0.536	0.568	0.653	0.382	0.634	0.494	0.666						0.799	0.917	0.743	0.769	0.866
EBC-1						0.199	0.193	0.221	0.227	0.222	0.278	0.348	0.284	0.33	0.279					
EKVX	0.242	0.22	0.22	0.222	0.25	0.251	0.24	0.234	0.245	0.22	0.479	0.48	0.436	0.61	0.449		0.68	0.41	0.415	0.432
EMC-BAC-2	0.377	0.364	0.322	0.383	0.422	0.368	0.349	0.298	0.42	0.39	0.499	0.46	0.388	0.461	0.481	0.846	0.761	0.645	0.653	0.692
EPLC-272H	0.281	0.259	0.236	0.245	0.268	0.274	0.295	0.188	0.211	0.262	0.797	0.577	0.592	0.586	0.638	0.133	0.229	0.172	0.172	0.222
H3255	0.332	0.271	0.354	0.363	0.288	0.35	0.332	0.302	0.294	0.281	0.526	0.412	0.48	0.441	0.334	0.74	0.562	0.595	0.632	0.509
